From PubChem BioAssay AID330 (DTP/NCI, 2004)
Values joined by “and” are separate entries in the source; they are usually repeats but may differ in a detail not shown here. Equal values may be shown once. Toxic doses and inconclusive results are not listed.

Test system: P388 leukemia ip, CD2F1 mice, survival T/C
Assay: NCI In Vivo Anticancer Drug Screen. Data for tumor model P388 Leukemia (intraperitoneal) in CD2F1 (CDF1) mice
Conditions: endpoint: median survival time, higher = longer survival
Method in brief: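 Mice carrying the transplanted tumor received test compound or vehicle. Survival was recorded in each group, and the value is the treated-group measurement divided by that of the vehicle-treated control group.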

Question: `COc1cc2c(cc1OC)C1C(CO)c3ccc(OC)c(OC)c3CN1CC2` (stereo not given) was tested. Which T/C (dose: 50.0 mg/kg/injection, schedule: Q04DX003 (ip), vehicle: distilled water + Tween-80) did it give?
Answer: 96 % of control

Question: And the T/C (dose: 100.0 mg/kg/injection, schedule: Q04DX003 (ip), vehicle: distilled water + Tween-80)?
Answer: 93 % of control

Question: And the T/C (dose: 200.0 mg/kg/injection, schedule: Q04DX003 (ip), vehicle: distilled water + Tween-80)?
Answer: 87 % of control

Question: And the T/C (dose: 400.0 mg/kg/injection, schedule: Q04DX003 (ip), vehicle: distilled water + Tween-80)?
Answer: 91 % of control

Question: Which T/C (dose: 50.0 mg/kg/injection, schedule: Q01DX001 (ip), vehicle: saline) does the source give for `O=c1[nH]c(=O)c2nc(-c3ccccn3)cnc2[nH]1` here?
Answer: 101 % of control

Question: What about the T/C (dose: 100.0 mg/kg/injection, schedule: Q01DX001 (ip), vehicle: saline) of the same compound?
Answer: 90 % of control

Question: What about the T/C (dose: 200.0 mg/kg/injection, schedule: Q01DX001 (ip), vehicle: saline) of the same compound?
Answer: 92 % of control

Question: What does the source list for `Nn1cnnc1N/N=C\c1ccc(N(CCCl)CCCl)cc1`?
Answer: T/C (dose: 12.5 mg/kg/injection, schedule: Q01DX009 (ip), vehicle: saline): 121 % of control and 122 % of control; T/C (dose: 50.0 mg/kg/injection, schedule: Q01DX009 (ip), vehicle: saline): 174 % of control and 188 % of control; T/C (dose: 100.0 mg/kg/injection, schedule: Q01DX009 (ip), vehicle: saline): 195 % of control and 209 % of control

Question: With `c1ccc2c(Cc3nn[nH]n3)noc2c1` as the compound, how does the T/C (dose: 50.0 mg/kg/injection, schedule: Q01DX009 (ip), vehicle: saline with Tween-80) read?
Answer: 109 % of control

Question: And the T/C (dose: 100.0 mg/kg/injection, schedule: Q01DX009 (ip), vehicle: saline with Tween-80)?
Answer: 107 % of control

Question: And the T/C (dose: 200.0 mg/kg/injection, schedule: Q01DX009 (ip), vehicle: saline with Tween-80)?
Answer: 100 % of control

Question: With `CC1C/C(=C2/NC3CCCCC3NC2=O)C(=O)O1` (stereo not given) as the compound, how does the T/C (dose: 6.25 mg/kg/injection, schedule: Q01DX009 (ip), vehicle: saline with Tween-80) read?
Answer: 100 % of control

Question: And the T/C (dose: 12.5 mg/kg/injection, schedule: Q01DX009 (ip), vehicle: saline with Tween-80)?
Answer: 95 % of control

Question: What about the T/C (dose: 25.0 mg/kg/injection, schedule: Q01DX009 (ip), vehicle: saline with Tween-80) of the same compound?
Answer: 92 % of control

Question: For `N#CN=[N+]([O-])c1ccccc1Br`, which T/C (dose: 3.12 mg/kg/injection, schedule: Q01DX009 (ip), vehicle: Klucel (hydroxypropylcellulose) (HPC)) is on record?
Answer: 98 % of control

Question: And the T/C (dose: 6.25 mg/kg/injection, schedule: Q01DX009 (ip), vehicle: Klucel (hydroxypropylcellulose) (HPC))?
Answer: 100 % of control

Question: And the T/C (dose: 6.25 mg/kg/injection, schedule: Q04DX003 (ip), vehicle: Klucel (hydroxypropylcellulose) (HPC))?
Answer: 100 % of control

Question: And the T/C (dose: 12.5 mg/kg/injection, schedule: Q01DX009 (ip), vehicle: Klucel (hydroxypropylcellulose) (HPC))?
Answer: 114 % of control

Question: And the T/C (dose: 12.5 mg/kg/injection, schedule: Q04DX003 (ip), vehicle: Klucel (hydroxypropylcellulose) (HPC))?
Answer: 91 % of control

Question: And the T/C (dose: 25.0 mg/kg/injection, schedule: Q04DX003 (ip), vehicle: Klucel (hydroxypropylcellulose) (HPC))?
Answer: 87 % of control

Question: What does the source list for `Cc1ccc(NC(=O)N2CC(C)OC(C)C2)cc1[N+](=O)[O-]` (stereo not given)?
Answer: T/C (dose: 50.0 mg/kg/injection, schedule: Q01DX005 (ip), vehicle: Klucel (hydroxypropylcellulose) (HPC)): 103 % of control; T/C (dose: 100.0 mg/kg/injection, schedule: Q01DX005 (ip), vehicle: Klucel (hydroxypropylcellulose) (HPC)): 99 % of control; T/C (dose: 200.0 mg/kg/injection, schedule: Q01DX005 (ip), vehicle: Klucel (hydroxypropylcellulose) (HPC)): 94 % of control

Question: Which T/C (dose: 50.0 mg/kg/injection, schedule: Q01DX009 (ip), vehicle: Klucel (hydroxypropylcellulose) (HPC)) does the source give for `COc1ccc(CCNCc2cccc(O)c2)cc1OC` here?
Answer: 90 % of control

Question: And the T/C (dose: 100.0 mg/kg/injection, schedule: Q01DX009 (ip), vehicle: Klucel (hydroxypropylcellulose) (HPC))?
Answer: 92 % of control

Question: What about the T/C (dose: 200.0 mg/kg/injection, schedule: Q01DX009 (ip), vehicle: Klucel (hydroxypropylcellulose) (HPC)) of the same compound?
Answer: 88 % of control

Question: `CC/C(=N\NS(=O)(=O)c1ccc(C)cc1)c1ccc(Br)cc1` was tested. Which T/C (dose: 100.0 mg/kg/injection, schedule: Q04DX002 (ip), vehicle: saline) did it give?
Answer: 100 % of control

Question: What about the T/C (dose: 200.0 mg/kg/injection, schedule: Q04DX002 (ip), vehicle: saline) of the same compound?
Answer: 105 % of control

Question: What about the T/C (dose: 400.0 mg/kg/injection, schedule: Q04DX002 (ip), vehicle: saline) of the same compound?
Answer: 96 % of control

Question: `CCN1C(=O)C(=O)c2ccccc21` was tested. Which T/C (dose: 18.75 mg/kg/injection, schedule: Q01DX009 (ip), vehicle: saline with Tween-80) did it give?
Answer: 96 % of control

Question: And the T/C (dose: 18.75 mg/kg/injection, schedule: Q01DX009 (ip), vehicle: saline)?
Answer: 107 % of control

Question: What about the T/C (dose: 37.5 mg/kg/injection, schedule: Q01DX009 (ip), vehicle: saline with Tween-80) of the same compound?
Answer: 96 % of control

Question: And the T/C (dose: 37.5 mg/kg/injection, schedule: Q01DX009 (ip), vehicle: saline)?
Answer: 102 % of control and 110 % of control

Question: And the T/C (dose: 75.0 mg/kg/injection, schedule: Q01DX009 (ip), vehicle: saline with Tween-80)?
Answer: 100 % of control

Question: And the T/C (dose: 75.0 mg/kg/injection, schedule: Q01DX009 (ip), vehicle: saline)?
Answer: 104 % of control and 105 % of control

Question: How did the T/C (dose: 25.0 mg/kg/injection, schedule: Q01DX005 (ip), vehicle: saline with Tween-80) turn out when `O=C(O)c1cc(Cc2c[nH]c(=O)[nH]c2=O)ccc1O` was run?
Answer: 111 % of control

Question: And the T/C (dose: 50.0 mg/kg/injection, schedule: Q01DX005 (ip), vehicle: saline with Tween-80)?
Answer: 111 % of control

Question: And the T/C (dose: 100.0 mg/kg/injection, schedule: Q01DX005 (ip), vehicle: saline with Tween-80)?
Answer: 101 % of control
